ChEMBL document CHEMBL1129043, “Preparation of phenolic paclitaxel metabolites” (J Med Chem, 1996)

Assay: Ratio of ED50 for cytotoxicity against B16 melanoma to paclitaxel
Conditions: mouse

For `CC(=O)O[C@H]1C(=O)[C@@]2(C)[C@H]([C@H](OC(=O)c3cccc(O)c3)[C@]3(O)C[C@H](OC(=O)[C@H](O)[C@@H](NC(=O)c4ccccc4)c4ccccc4)C(C)=C1C3(C)C)[C@]1(OC(C)=O)CO[C@@H]1C[C@@H]2O`, the Ratio was greater than 20.
